The structures appear in SMILES notation. pIC50: −log10 of the molar value.

Assay type in all cases: biochemical
For one experiment, the target named is T1, KHS/MAP4K5 (Homo sapiens, UniProt Q9Y4K4).
T1 construct: purchased Reaction Biology
Description: HotSpot radiometric kinase assay (Reaction Biology), KHS/MAP4K5. The following applies: 1.5 nM kinase, substrate MBP 20 μM, 33P-ATP, 120 minutes at room temperature. Here is the method: The compounds were profiled in the HotSpot radiometric assays (Reaction Biology).
Briefly, • 1. Substrate indicated in Table 1 was dissolved in freshly prepared reaction buffer (20 mM HEPES (pH 7.5), 10 mM MgCl2, 1 mM EGTA, 0.01% Brij35, 0.02 mg/ml BSA, 0.1 mM Na3VO4, 2 mM DTT, 1% DMSO) at the concentration indicated in Table 1. • 2. Corresponding kinase (concentration indicated in Table 1) was added and the mixture was gently mixed. • 3. Tested compound dissolved in DMSO was added into the kinase reaction mixture. • 4. ^33P-ATP (specific activity 0.01 μCi/μL final) was added into the reaction mixture to initiate the reaction. • 5. The kinase reaction was incubated for 120 minutes at room temperature. • 6. Reaction mixture was spotted onto P81 ion exchange paper (Whatman K 3698-915). • 7. The filters were extensively washed with […]. • 7. The radioactive phosphorylated substrate remaining on the filter paper was measured.
Kinase activity data were expressed as the percent remaining kinase activity in tested samples compared to the vehicle (DMSO) reactions. IC50 values and curve fits were obtained using Prism4 Software (GraphPad).
Table 2 summarizes the inhibitory activities of indicated compounds tested in the in vitro kinase assays described above.

In another experiment the target is T2, FLT3 (Homo sapiens, UniProt P36888).
T2 construct: purchased Reaction Biology
T2 sequence (P36888 27-993): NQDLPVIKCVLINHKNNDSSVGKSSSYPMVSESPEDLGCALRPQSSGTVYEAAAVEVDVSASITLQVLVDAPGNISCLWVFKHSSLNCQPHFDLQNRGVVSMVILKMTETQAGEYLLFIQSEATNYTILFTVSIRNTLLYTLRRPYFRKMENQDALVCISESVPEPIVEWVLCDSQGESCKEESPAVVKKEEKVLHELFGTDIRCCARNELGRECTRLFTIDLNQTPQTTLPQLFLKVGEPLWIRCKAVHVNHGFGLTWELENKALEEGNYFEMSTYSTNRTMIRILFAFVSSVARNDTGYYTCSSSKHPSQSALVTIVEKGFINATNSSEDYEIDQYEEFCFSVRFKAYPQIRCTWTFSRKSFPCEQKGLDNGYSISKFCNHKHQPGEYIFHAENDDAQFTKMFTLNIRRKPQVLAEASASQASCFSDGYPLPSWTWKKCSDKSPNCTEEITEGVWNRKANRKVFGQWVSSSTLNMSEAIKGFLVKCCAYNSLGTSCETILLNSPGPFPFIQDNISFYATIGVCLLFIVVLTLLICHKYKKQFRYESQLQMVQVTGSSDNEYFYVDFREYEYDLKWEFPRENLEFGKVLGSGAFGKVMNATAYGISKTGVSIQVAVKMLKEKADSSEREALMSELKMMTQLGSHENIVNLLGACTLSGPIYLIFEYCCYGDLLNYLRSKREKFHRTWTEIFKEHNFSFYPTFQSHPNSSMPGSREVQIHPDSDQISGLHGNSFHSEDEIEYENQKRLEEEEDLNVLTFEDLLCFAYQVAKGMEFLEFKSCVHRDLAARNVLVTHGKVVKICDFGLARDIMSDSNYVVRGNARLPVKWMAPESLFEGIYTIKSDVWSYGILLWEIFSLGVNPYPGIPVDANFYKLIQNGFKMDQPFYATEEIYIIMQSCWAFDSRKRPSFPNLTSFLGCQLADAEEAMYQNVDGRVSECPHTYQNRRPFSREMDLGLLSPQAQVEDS
Description: HotSpot radiometric kinase assay (Reaction Biology), FLT3. The settings on record: 4 nM kinase, substrate ABLtide 20 μM, 33P-ATP, 120 minutes at room temperature. An outline of the steps: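 Radiometric filter-binding assay with kinase and substrate in HEPES pH 7.5 buffer containing MgCl2, EGTA, Brij35, BSA, Na3VO4, DTT and 1% DMSO, started with ^33P-ATP and run 120 min at room temperature. Phosphorylated substrate on P81 paper counted; activity expressed as % of DMSO control, IC50 from curve fits.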

In another experiment the target is T3, DDR1 (Homo sapiens, UniProt Q08345).
T3 construct: purchased Reaction Biology
T3 sequence (Q08345 19-913): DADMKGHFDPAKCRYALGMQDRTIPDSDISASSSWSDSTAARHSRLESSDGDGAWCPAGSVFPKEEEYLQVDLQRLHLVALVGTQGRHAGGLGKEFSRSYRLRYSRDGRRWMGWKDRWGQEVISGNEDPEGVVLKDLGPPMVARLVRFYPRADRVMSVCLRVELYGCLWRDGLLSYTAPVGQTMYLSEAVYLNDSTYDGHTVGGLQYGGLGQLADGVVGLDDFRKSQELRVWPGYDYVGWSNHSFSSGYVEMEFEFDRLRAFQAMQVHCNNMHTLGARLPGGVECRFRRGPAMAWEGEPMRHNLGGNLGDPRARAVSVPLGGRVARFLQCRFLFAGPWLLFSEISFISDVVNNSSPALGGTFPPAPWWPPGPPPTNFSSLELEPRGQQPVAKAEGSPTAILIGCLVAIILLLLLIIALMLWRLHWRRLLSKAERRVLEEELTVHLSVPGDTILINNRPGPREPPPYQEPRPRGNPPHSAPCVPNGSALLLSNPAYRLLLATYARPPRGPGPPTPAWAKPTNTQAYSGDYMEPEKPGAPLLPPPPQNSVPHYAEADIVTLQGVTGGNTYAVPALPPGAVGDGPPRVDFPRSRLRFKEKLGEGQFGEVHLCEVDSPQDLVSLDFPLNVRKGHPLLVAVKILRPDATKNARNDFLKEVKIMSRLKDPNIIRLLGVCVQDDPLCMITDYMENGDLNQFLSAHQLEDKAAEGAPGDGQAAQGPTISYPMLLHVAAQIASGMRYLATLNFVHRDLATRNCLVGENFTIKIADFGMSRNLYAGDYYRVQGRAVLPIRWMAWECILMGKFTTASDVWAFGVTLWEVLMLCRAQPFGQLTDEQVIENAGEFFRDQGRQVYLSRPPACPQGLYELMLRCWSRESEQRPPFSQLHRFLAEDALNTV
Description: HotSpot radiometric kinase assay (Reaction Biology), DDR1. The following applies: 200 nM kinase, substrate IRS1tide 20 μM, 33P-ATP, 120 minutes at room temperature. An outline of the steps:
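Radiometric filter-binding assay: kinase and substrate in 20 mM HEPES pH 7.5, 10 mM MgCl2, 1 mM EGTA, 2 mM DTT, 1% DMSO. Reaction started with ^33P-ATP (0.01 μCi/μL final), run 120 minutes at room temperature. Activity expressed as percent of DMSO control; IC50 from curve fits.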

T1 sequence (Q9Y4K4 whole entry): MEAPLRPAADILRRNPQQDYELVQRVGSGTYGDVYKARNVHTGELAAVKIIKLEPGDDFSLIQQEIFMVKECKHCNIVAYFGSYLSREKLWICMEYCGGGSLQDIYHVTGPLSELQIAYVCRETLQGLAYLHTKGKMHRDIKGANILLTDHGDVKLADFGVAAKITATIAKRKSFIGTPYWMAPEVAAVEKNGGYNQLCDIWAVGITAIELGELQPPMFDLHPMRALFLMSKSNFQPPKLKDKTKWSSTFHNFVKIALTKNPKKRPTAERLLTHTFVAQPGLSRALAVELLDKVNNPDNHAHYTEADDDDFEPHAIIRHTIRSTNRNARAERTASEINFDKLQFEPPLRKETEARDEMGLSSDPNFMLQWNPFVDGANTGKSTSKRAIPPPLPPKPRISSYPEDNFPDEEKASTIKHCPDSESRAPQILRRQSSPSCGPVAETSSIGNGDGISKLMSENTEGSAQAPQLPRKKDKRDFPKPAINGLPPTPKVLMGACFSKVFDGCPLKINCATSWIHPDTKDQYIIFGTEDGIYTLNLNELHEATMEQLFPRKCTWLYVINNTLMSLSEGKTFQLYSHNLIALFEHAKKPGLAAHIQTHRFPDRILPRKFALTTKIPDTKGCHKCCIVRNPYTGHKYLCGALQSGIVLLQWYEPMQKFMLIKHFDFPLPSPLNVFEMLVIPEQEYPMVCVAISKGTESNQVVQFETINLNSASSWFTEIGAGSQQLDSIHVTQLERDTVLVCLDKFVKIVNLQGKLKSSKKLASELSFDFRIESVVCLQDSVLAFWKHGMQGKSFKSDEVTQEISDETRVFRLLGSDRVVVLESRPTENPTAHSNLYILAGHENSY

Take `Fc1cccc(-c2coc3cc(-c4ccc(N5CCNCC5)cc4)cnc23)c1` [Preparative Example 170, 3-(3-fluorophenyl)-6-(4-(piperazin-1-yl)phenyl)furo[3,2-b]pyridine]: the pIC50 against KHS/MAP4K5 was 6.05; at FLT3 it was 7.51; against DDR1 it was 6.92.

On to `CN1CCN(c2ccc(-c3cnc4c(-c5cc(C(N)=O)ccc5F)coc4c3)cc2)CC1` [Preparative Example 211, 4-fluoro-3-(6-(4-(4-methylpiperazin-1-yl)phenyl)furo[3,2-b]pyridin-3-yl)benzamide], for which the values for the pIC50 against KHS/MAP4K5, at FLT3 and on DDR1 were 6.78, 7.68 and 6.28, respectively.

As for `CN1CCN(c2ccc(-c3cnc4c(-c5cc(F)cc(C(N)=O)c5)coc4c3)cc2)CC1` [Preparative Example 219, 3-fluoro-5-{6-[4-(4-methylpiperazin-1-yl)phenyl]furo[3,2-b]pyridin-3-yl}benzamide], the negative logarithm of the IC50 (pIC50) on KHS/MAP4K5 was 6.12; against FLT3 it was 7.25; against DDR1 it was 7.57.

With `CN1CCN(c2ccc(-c3cnc4c(Oc5ccccc5)coc4c3)cc2)CC1` [Preparative Example 229, 1-methyl-4-(4-{3-phenoxyfuro[3,2-b]pyridin-6-yl}phenyl)piperazine], the pIC50 at KHS/MAP4K5 was 6.55; against FLT3, 6.14; against DDR1, 6.51.

For orientation: pIC50 means the IC50 on a negative log10 scale, so that one unit is a factor of ten. Read a high pIC50 as a small IC50.

The values above are taken from patent publication US20250352550A1, “SUBSTITUTED FUROPYRIDINES FOR THERAPEUTIC USE” (MASARYKOVA UNIVERZITA, priority 2022, published 2025).
